{"source": "patent US12233077B2", "about": "“Therapeutic treatment of breast cancer based on c-MAF status” (INBIOMOTION S.L., priority 2017, dated 2025)", "key": {"[1]": {"test_system": "patients with invasive stage II or III breast cancer (AZURE trial)", "test": "AZURE trial, effect of MAF amplification on treatment outcomes with adjuvant zoledronic acid (Example 3)", "type": "in vivo, human", "excerpt": "3,360 patients from 174 centers worldwide were recruited to the AZURE trial between Sep. 4, 2003, and Feb. 16, 2006. Eligible patients had histologically confirmed invasive stage II or III breast cancer of any subtype, with either pathologically involved axillary lymph node metastasis or a T3 or T4 primary tumor treated with curative intent and complete resection of the primary tumor (or planned resection if patients were being treated with neoadjuvant chemotherapy). Other inclusion criteria were age 18 years or older, Karnofsky performance status score 80 or more, and not being pregnant or breastfeeding. Patients were excluded if they had clinical or imaging evidence of distant metastases, current or recent (<1 year) use of bisphosphonates, or pre-existing bone disease likely to require bone-targeted treatment. All patients gave written informed consent. In the UK, patients also provided voluntary specific consent for use of biological materials (primary tumor and blood samples). Before randomization, patients underwent hematological, renal, hepatic function, and staging imaging tests according to institutional protocols. Those confirmed to be eligible were randomly assigned (1:1) to standard adjuvant systemic treatment alone or with zoledronic acid from a central computer-generated schedule held at the Clinical Trials Research Unit, University of Leeds, Leeds, UK. A minimization process that took into account the number of involved axillary lymph nodes, clinical tumor stage, estrogen receptor status, type and timing of systemic therapy, menopausal status, statin use, and treating center was used.\nPatients received standard systemic therapy with (neo-) adjuvant chemotherapy, endocrine therapy, or both, alone (control group) or with 4 mg zoledronic acid given intravenously every 3-4 weeks for the first six doses, every 3 months for eight doses, and every 6 months for five doses to complete 5 years of treatment (zoledronic acid group). Oral calcium and vitamin D supplements were recommended for all patients in the first 6 months of treatment, and continued thereafter at the discretion of the treating physician. Adjuvant systemic treatments and locoregional radiotherapy were used in accordance with the standard protocols of each participating institution.\nThe follow-up schedule was similar in both study groups, and included clinical assessments, monitoring of adverse events, and hematological, renal, and hepatic function tests. Routine follow-up imaging was not mandated, but investigations were done for clinically suspected recurrence if deemed appropriate by the treating physician. Recurrence was defined by the date on which it was first suspected, to reduce the risk of ascertainment bias. 91% of recurrences were independently validated by either on-site or telephone based monitoring. After treatment with zoledronic acid was completed, patients were followed up annually for disease and safety endpoints.\n5 μm thick slices were cut from each TMA block and oriented to match the TMA map to allow identification of each tissue core. The slices were mounted onto Superfrost plus glass slides (Thermo Fisher Scientific, Waltham, MA, USA) and stained with hematoxylin and eosin to confirm the presence of assessable tumor. MAF amplification was assessed with the validated MAFTEST fluorescence in situ hybridization (FISH) with the MAF/D16Z3 probe (Inbiomotion, Barcelona, Spain). A central laboratory (Targos Molecular Pathology, Kassel, Germany) validated the analytical and diagnostic performance of the assay, established acceptance criteria, included appropriate quality controls for each assay, and performed the analyses masked to treatment assignment. Briefly, TMA sections were rehydrated in ethanol series, washed with water, and pretreated at 98° C. for 15 min. Samples were digested with pepsin in a Poseidon Tissue Digestion Kit (Kreatech, Amsterdam, Netherlands) for 30 min, dehydrated in ethanol series, and dried. […]"}, "[2]": {"test_system": "breast cancer patients (AZURE trial)", "test": "AZURE trial, zoledronic acid treatment effect according to MAF FISH stratification (Example 2)", "type": "in vivo, human", "conditions": "for HR, risk of bone metastasis (anytime), zoledronic acid treatment / HR, bone metastatic event (anytime), zoledronic acid treatment: cutoff 2.5", "excerpt": "The MAF FISH assay was produced by Kreatech for Inbiomotion based on Kreatech proprietary FISH technology. The probe set contains two probes: a MAF 16q23 probe plus a D16Z3 probe as control of chromosome 16 centromeric region. The assay was validated using a 16q23/D16Z3 probe (Inbiomotion) and Poseidon Tissue Digestion Kit from Kreatech. The scoring criteria were defined in a fact sheet and as follows: two FISH evaluable results per patient, and the highest value was selected. The scoring algorithm was as follows: 20 cells counted for target and centromere amplification, if the gene count is >2 and ≤3, then 50 cells were counted.\nAn overview of the AZURE clinical trial (Coleman et al N Eng J Med 2011; 365: 1396-1405 and AZURE Current Controlled Trials number, ISRCTN79831382 and ClinicalTrials.gov identifier NCT00072020) study design, whose patients were used to validate MAF, is provided in FIG. 2. MAF was validated in a retrospective analysis of the AZURE trial using patient tumor sample prospectively collected under regulatory compliant conditions. Out of the 3,360 patients recruited, 1,769 donated tumor tissue (52.4%). There were 13 TMAs (tissue micro array) (150 patient samples each) (1,769 patients). There were 4 replicas of each TMA using different tissue cores (6,326 (4× patient)). One TMA had only 1 replica and two TMAs had three replicas. Based on the H&E analysis (hematoxylin and eosin) (FIG. 3) (6,326): 3,978 cores were evaluable (63%) and 2,348 were nonevaluable.\nFor the FISH assay, there were 2,067 FISH evaluable cores (56%). […] 567 patients were nonevaluable by FISH in any of the 4 replicas (32%).\nWith regard to molecular variables, for FISH analysis: MAF copy number: numerical and categorical (+/−cut-off>=2.5) variable; % of nucleic MAF amplified (MAF CN>2):numberical+categorical (cut-off TBD). For the IHC analysis: IHC H-Score: numerical+categorical (cut-off>=200), IHC OD: numerical+categorical (cut-off tBD). The following clinical variables were analyzed: disease-free survival (DFS), invasive disease-free survival (IDFS), overall survival (OS), first recurrence in bone, bone recurrence at any time, time to first DFS event in bone, time to first DFS event not in bone, response to zoledronic acid treatment.\nIn analyzing the MAF FISH prognostic value, the patients from the control and treatment arms were pooled for the initial analysis. Optimized cut-offs for each variable to be analyzed were used when indicated. Death as a competing event was used in time to bone metastasis, anytime. The following clinical variables were analyzed: time to bone metastasis (anytime), time to bone metastasis (as first event), IDFS (including ipsilateral invasive breast tumor recurrence, regional invasive breast cancer recurrence, metastatic disease-breast cancer, death attributable to any cause, including breast cancer, contralateral invasive breast cancer, second primary non-breast invasive cancer), and overall survival.\nThe control and zoledronic acid treatment arms from the AZURE study described in Example 1 were evaluated to determine the effect of zoledronic acid treatment on MAF-stratified patients."}, "[3]": {"conditions": "zoledronic acid group (420 patients), median follow-up 84·6 months"}}, "data": [{"smiles": "O=P(O)(O)C(O)(Cn1ccnc1)P(=O)(O)O", "note": "[zoledronic acid]", "values": [{"measurement": "effect on extraskeletal recurrence", "setting": "[1]; MAF-negative tumors, nonpostmenopausal at start of treatment", "result": "No effect"}, {"measurement": "patients who died", "setting": "[1]; MAF-negative tumors, zoledronic acid group (321 patients)", "result": 18, "unit": "%"}, {"measurement": "number of events, invasive-disease-free survival", "setting": "[1]; MAF-negative, non-postmenopausal zoledronic acid group (216 patients)", "result": "216 (61)"}, {"measurement": "number of events, invasive-disease-free survival", "setting": "[1]; MAF-negative, postmenopausal zoledronic acid group (105 patients)", "result": "105 (29)"}, {"measurement": "patients who died", "setting": "[1]; MAF-positive tumors, non-postmenopausal at start of treatment, zoledronic acid group (66 patients)", "result": 36, "unit": "%"}, {"measurement": "patients who died", "setting": "[1]; MAF-positive tumors, postmenopausal, zoledronic acid group (33 patients)", "result": 30, "unit": "%"}, {"measurement": "patients who died", "setting": "[1]; MAF-positive tumors, zoledronic acid group (99 patients)", "result": 34, "unit": "%"}, {"measurement": "number of events, invasive-disease-free survival", "setting": "[1]; MAF-positive, non-postmenopausal zoledronic acid group (66 patients)", "result": "66 (33)"}, {"measurement": "number of events, invasive-disease-free survival", "setting": "[1]; MAF-positive, postmenopausal zoledronic acid group (33 patients)", "result": "33 (12)"}, {"measurement": "patients with an extraskeletal invasive-disease-free survival event", "setting": "[1]; zoledronic acid group", "result": 98}, {"measurement": "patients who had died", "setting": "[1]; [3]", "result": 91}, {"measurement": "patients with a first event in bone", "setting": "[1]; [3]", "result": 21}, {"measurement": "patients with an invasive-disease-free survival event", "setting": "[1]; [3]", "result": 135}, {"measurement": "number of events, invasive-disease-free survival", "setting": "[1]; zoledronic acid group, <50 years, MAF-negative (142 patients)", "result": 41}, {"measurement": "number of events, invasive-disease-free survival", "setting": "[1]; zoledronic acid group, <50 years, MAF-positive (44 patients)", "result": 23}, {"measurement": "number of events, invasive-disease-free survival", "setting": "[1]; zoledronic acid group, ≥50 years, MAF-negative (179 patients)", "result": 49}, {"measurement": "number of events, invasive-disease-free survival", "setting": "[1]; zoledronic acid group, ≥50 years, MAF-positive (55 patients)", "result": 22}, {"measurement": "HR, risk of bone metastasis (anytime), zoledronic acid treatment", "setting": "[2]; MAF FISH not positive patients, death as competing event, p=0.03", "result": 0.65}, {"measurement": "HR, overall survival outcome, zoledronic acid treatment", "setting": "[2]; MAF negative post menopausal patients, 95% CI 0.31-1.01", "result": 0.56}, {"measurement": "HR, DFS outcome, zoledronic acid treatment", "setting": "[2]; MAF negative post menopausal patients, 95% CI 0.33-0.95", "result": 0.56}, {"measurement": "HR, bone metastatic event (anytime), zoledronic acid treatment", "setting": "[2]; MAF non-positive non-post-menopausal patients, p=0.08", "result": 0.66}, {"measurement": "HR, bone metastatic event (anytime), zoledronic acid treatment", "setting": "[2]; MAF non-positive postmenopausal patients, limited number of events", "result": 0.63}, {"measurement": "HR, bone metastatic event (anytime), zoledronic acid treatment", "setting": "[2]; MAF positive non-post-menopausal patients, p=0.045", "result": 2.44}, {"measurement": "HR, risk of bone metastasis (anytime), zoledronic acid treatment", "setting": "[2]; MAF positive patients, death as competing event, non-significant, p=0.22", "result": 1.54}, {"measurement": "HR, bone metastatic event (anytime), zoledronic acid treatment", "setting": "[2]; MAF positive postmenopausal patients, p=0.26, limited number of events", "result": 0.46}, {"measurement": "HR, risk of bone metastasis at any time", "setting": "[2]; zoledronic acid arm, MAF FISH not positive (<2.3) compared to MAF FISH positive, death as competing event, p=0.01", "result": 0.52}, {"measurement": "HR, time to recurrence (invasive disease)", "setting": "[2]; zoledronic acid treatment arm, by MAF FISH status (positive >=2.2), multivariate analysis, p<0.001", "result": 0.52}]}]}
